Reference: ChEMBL document CHEMBL1909046, “DrugMatrix in vitro pharmacology data”

Columns and labels:
[1] = DRUGMATRIX: Glutamate, NMDA, Agonism radioligand binding (ligand: [3H] CGP-39653); assay type: cell membranes, Rattus norvegicus, Wistar, Cerebral cortex, Membrane; settings: Not Active = under 50% inhibition at 10 µM
[2] = DRUGMATRIX: Serotonin (5-Hydroxytryptamine) 5-HT3 radioligand binding (ligand: [3H] GR-65630); assay type: cell membranes, Membrane; settings: hek293; Not Active = under 50% inhibition at 10 µM
[3] = DRUGMATRIX: Phosphodiesterase PDE4 enzyme inhibition (substrate: [3H]cAMP + cAMP); settings: u-937; Not Active = under 50% inhibition at 10 µM
Carbonic anhydrase 2 = Carbonic anhydrase 2 (Homo sapiens, UniProt P00918); assay: DRUGMATRIX: Carbonic Anhydrase II enzyme inhibition (substrate: 4-Nitrophenyl acetate (4-NPA)); assay type: tissue-based, Erythrocyte; settings: erythrocyte; Not Active = under 50% inhibition at 10 µM
[4] = molecular target: Sodium-dependent dopamine transporter (Homo sapiens, UniProt Q01959); assay: DRUGMATRIX: Dopamine Transporter radioligand binding (ligand: [125I] RTI-55); assay type: cell membranes, CHO-K1, Membrane; settings: cho-k1; Not Active = under 50% inhibition at 10 µM
Sequence of Sodium-dependent dopamine transporter (Q01959 whole entry): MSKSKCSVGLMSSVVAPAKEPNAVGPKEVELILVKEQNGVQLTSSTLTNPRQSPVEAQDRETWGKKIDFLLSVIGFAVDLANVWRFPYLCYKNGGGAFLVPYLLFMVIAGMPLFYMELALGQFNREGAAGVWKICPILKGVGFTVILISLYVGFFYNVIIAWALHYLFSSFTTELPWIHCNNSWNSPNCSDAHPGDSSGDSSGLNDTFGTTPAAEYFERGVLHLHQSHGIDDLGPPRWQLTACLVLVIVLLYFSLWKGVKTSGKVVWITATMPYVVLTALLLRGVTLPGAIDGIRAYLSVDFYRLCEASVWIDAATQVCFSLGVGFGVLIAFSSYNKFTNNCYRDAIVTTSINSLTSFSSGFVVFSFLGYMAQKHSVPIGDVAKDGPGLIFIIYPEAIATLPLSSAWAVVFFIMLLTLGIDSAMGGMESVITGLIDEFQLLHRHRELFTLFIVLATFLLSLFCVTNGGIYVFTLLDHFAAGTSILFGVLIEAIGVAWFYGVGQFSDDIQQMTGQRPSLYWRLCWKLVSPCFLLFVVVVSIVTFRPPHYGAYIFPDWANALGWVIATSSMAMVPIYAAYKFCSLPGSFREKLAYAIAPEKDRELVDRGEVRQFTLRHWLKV

[5] = molecular target: T1, Muscarinic acetylcholine receptor M4 (Homo sapiens, UniProt P08173); assay type: cell membranes, CHO-K1, Membrane; settings: cho-k1; note: in other assays of this panel Not Active means under 50% inhibition at 10 µM
T1 sequence (P08173 whole entry): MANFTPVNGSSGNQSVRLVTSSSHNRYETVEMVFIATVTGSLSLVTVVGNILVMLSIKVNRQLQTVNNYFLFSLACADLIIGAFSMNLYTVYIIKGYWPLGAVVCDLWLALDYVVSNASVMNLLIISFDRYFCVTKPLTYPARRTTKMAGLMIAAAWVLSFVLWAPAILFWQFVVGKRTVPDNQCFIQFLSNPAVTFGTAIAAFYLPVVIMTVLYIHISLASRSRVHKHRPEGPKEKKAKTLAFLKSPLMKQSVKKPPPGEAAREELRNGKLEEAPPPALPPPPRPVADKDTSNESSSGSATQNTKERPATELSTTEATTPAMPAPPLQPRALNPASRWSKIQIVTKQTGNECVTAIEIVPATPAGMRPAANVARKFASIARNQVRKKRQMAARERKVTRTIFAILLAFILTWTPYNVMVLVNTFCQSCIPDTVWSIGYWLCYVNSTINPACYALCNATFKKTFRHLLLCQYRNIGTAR

[6] = molecular target: Tyrosine-protein kinase Fyn (Homo sapiens, UniProt P06241); assay: biochemical; assay type: cell-based, Insect cells; settings: insect cells;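 note: enzymatic inhibition of Fyn kinase activity measured with Poly(Glu:Tyr) as the phosphorylation substrate; in other assays of this panel Not Active means under 50% inhibition at 10 µM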
Sequence of Tyrosine-protein kinase Fyn (P06241 whole entry): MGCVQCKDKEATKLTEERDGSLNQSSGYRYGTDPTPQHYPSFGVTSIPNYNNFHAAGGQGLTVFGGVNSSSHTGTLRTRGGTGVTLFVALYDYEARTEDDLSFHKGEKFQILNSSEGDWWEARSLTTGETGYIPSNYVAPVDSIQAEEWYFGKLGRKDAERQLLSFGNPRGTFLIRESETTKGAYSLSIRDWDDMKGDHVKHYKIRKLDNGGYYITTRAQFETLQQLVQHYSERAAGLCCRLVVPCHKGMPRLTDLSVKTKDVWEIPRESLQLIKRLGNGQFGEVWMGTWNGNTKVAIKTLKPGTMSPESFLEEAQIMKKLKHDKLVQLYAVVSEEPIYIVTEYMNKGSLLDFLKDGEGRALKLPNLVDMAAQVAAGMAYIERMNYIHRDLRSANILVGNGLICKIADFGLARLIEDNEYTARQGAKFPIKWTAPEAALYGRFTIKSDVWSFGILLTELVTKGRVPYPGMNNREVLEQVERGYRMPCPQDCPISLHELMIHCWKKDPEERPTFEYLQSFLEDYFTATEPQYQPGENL

[7] = molecular target: T2, Neuropeptide Y receptor type 1 (Homo sapiens, UniProt P25929); assay type: cell membranes, Membrane; settings: sk-n-mc; note: in other assays of this panel Not Active means under 50% inhibition at 10 µM
T2 sequence (P25929 whole entry): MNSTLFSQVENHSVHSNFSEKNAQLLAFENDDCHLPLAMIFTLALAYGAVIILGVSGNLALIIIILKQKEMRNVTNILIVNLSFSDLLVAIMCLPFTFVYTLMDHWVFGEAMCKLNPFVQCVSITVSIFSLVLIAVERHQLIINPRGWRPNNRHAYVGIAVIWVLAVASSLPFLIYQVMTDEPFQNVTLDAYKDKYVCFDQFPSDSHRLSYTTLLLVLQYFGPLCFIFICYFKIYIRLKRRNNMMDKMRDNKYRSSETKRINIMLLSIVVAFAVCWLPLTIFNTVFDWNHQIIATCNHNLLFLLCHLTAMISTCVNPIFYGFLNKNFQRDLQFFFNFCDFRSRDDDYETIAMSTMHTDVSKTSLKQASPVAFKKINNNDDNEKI

Substance-K receptor = molecular target: T3, Substance-K receptor (Homo sapiens, UniProt P21452); assay type: cell membranes, CHO, Membrane; note: in other assays of this panel Not Active means under 50% inhibition at 10 µM
T3 sequence (P21452 whole entry): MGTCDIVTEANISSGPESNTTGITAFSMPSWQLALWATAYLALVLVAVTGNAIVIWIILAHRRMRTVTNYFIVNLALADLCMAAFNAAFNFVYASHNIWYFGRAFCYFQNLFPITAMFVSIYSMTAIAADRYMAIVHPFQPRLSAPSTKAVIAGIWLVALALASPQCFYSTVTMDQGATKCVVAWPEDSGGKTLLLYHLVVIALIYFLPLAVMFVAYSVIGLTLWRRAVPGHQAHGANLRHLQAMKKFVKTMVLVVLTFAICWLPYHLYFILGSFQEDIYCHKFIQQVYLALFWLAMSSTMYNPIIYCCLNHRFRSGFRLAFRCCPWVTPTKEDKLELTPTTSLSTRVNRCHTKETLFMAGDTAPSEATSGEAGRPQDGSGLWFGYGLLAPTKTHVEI

[8] = DRUGMATRIX: Nicotinic Acetylcholine radioligand binding (ligand: [125I] Epibatidine); assay type: cell membranes, Membrane; settings: imr-32; Not Active = under 50% inhibition at 10 µM
[9] = molecular target: T4, Muscarinic acetylcholine receptor M5 (Homo sapiens, UniProt P08912); assay type: cell membranes, CHO-K1, Membrane; settings: cho-k1; note: in other assays of this panel Not Active means under 50% inhibition at 10 µM
T4 sequence (P08912 whole entry): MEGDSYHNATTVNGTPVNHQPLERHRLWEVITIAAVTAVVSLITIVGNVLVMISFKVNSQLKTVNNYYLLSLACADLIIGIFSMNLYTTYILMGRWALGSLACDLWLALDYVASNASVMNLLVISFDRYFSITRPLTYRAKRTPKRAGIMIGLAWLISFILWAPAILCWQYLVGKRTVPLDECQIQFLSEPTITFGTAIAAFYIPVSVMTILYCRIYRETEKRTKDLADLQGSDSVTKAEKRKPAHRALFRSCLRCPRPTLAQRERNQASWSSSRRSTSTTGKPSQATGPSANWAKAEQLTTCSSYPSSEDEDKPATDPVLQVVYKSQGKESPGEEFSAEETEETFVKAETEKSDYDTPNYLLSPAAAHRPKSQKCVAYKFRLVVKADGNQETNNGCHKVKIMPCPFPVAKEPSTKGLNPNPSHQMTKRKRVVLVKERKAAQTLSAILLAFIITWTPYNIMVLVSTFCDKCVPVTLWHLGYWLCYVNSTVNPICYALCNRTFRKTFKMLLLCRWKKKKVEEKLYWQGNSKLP

Mu-type opioid receptor = Mu-type opioid receptor (Homo sapiens, UniProt P35372); assay: DRUGMATRIX: Opiate mu (OP3, MOP) radioligand binding (ligand: [3H] Diprenorphine); assay type: cell membranes, CHO-K1, Membrane; settings: cho-k1; Not Active = under 50% inhibition at 10 µM
Sequence of Mu-type opioid receptor (P35372 whole entry): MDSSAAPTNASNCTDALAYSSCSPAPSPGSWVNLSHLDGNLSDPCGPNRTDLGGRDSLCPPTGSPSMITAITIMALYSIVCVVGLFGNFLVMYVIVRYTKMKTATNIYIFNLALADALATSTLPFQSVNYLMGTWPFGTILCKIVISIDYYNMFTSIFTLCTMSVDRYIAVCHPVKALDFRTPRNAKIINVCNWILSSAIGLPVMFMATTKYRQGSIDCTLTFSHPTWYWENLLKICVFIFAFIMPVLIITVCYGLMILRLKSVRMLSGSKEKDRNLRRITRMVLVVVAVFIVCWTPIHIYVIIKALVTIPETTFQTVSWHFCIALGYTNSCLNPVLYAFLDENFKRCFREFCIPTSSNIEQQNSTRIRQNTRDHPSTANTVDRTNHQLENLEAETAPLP

Histamine H2 receptor = Histamine H2 receptor (Homo sapiens, UniProt P25021); assay type: cell membranes, CHO-K1, Membrane; settings: cho-k1; note: in other assays of this panel Not Active means under 50% inhibition at 10 µM
Sequence of Histamine H2 receptor (P25021 whole entry): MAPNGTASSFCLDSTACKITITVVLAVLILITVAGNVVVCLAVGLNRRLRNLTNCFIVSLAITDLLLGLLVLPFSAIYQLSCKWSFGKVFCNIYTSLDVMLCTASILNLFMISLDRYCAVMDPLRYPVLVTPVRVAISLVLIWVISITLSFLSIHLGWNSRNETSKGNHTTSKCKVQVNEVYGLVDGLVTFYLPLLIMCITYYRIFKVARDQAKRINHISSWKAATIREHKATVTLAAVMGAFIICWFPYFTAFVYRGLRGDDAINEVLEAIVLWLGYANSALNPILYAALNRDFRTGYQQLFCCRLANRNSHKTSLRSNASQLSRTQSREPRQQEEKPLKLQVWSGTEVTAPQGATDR

Row | SMILES | IC50 [1] | Ki [1] | IC50 [2] | Ki [2] | IC50 [3] | Ki [3] | IC50 (Carbonic anhydrase 2) | IC50 [4] | IC50 [5] | IC50 [6] | IC50 [7] | IC50 (Substance-K receptor; cho) | IC50 [8] | Ki [8] | IC50 [9] | IC50 (Mu-type opioid receptor) | IC50 (Histamine H2 receptor) | IC50 (Substance-K receptor; read-out: IC50) | Ki (Substance-K receptor; read-out: Ki)
1 | CCOC(=O)[C@H](CCc1ccccc1)N[C@@H](C)C(=O)N1[C@H](C(=O)O)C[C@@H]2CCC[C@@H]21 | Not Active | Not Active | Not Active | Not Active | Not Active | Not Active | Not Active | Not Active | Not Active | Not Active | Not Active | Not Active | Not Active | Not Active | Not Active | Not Active | Not Active | – | –
2 | CC(C)(C)NC(=O)[C@@H]1CN(Cc2cccnc2)CCN1C[C@@H](O)C[C@@H](Cc1ccccc1)C(=O)N[C@H]1c2ccccc2C[C@H]1O.O | Not Active | Not Active | Not Active | Not Active | Not Active | Not Active | Not Active | Not Active | Not Active | Not Active | Not Active | – | Not Active | Not Active | Not Active | Not Active | Not Active | 5.1 µM | 1.7 µM
3 | CC1(C)[C@H]2CC[C@]1(C)C(=O)C2 [(-)-CAMPHOR] | Not Active | Not Active | Not Active | Not Active | Not Active | Not Active | Not Active | Not Active | Not Active | Not Active | Not Active | Not Active | Not Active | Not Active | Not Active | Not Active | Not Active | – | –
4 | CC(C)(C)NCC(O)c1ccc(O)c(CO)c1 (centres undefined) [ALBUTEROL] | Not Active | Not Active | Not Active | Not Active | Not Active | Not Active | Not Active | Not Active | Not Active | Not Active | Not Active | Not Active | Not Active | Not Active | Not Active | Not Active | Not Active | – | –
